According to a melting point compilation (Tetko et al.; mined from patent text by program, amines drawn as free bases though some values may be those of a salt):

| SMILES | melting point |
| --- | --- |
| COc1ccc(C(C)(C)C)cc1C=Cc1ccc(CCl)cc1 | 103 to 104 °C |
| CC(C)C[C@H](N)C(=O)N1CCN(C(c2ccc(F)cc2)c2ccc(F)cc2)CC1 | 61 to 68 °C |
| O=C(O)CCCC(=O)Nc1cccc(-c2nnc(-c3ccc(C(F)(F)F)cc3)nn2)c1 | 246 to 248 °C |
| CCCCNC(=O)OCCCc1ccc(OCCOC)cc1Oc1ncc(C(F)(F)F)cc1Cl | 91.7 to 91.8 °C |
| O=C(c1ccccn1)c1cnn2c(-c3cccnc3)ccnc12 | 216 to 218 °C |
| CCCCOc1ccc2nc(C(=O)O)c(OCc3ccccc3)cc2c1 | 108 to 110 °C |
| CCC(O)(c1cncc(OCc2ccc3ccccc3c2)c1)c1nccs1 (stereo not drawn) | 48 to 50 °C |
| CCOC(=O)CC(=O)N(C)c1ccccc1N | 63 to 64 °C |
| Clc1ccc(CNc2cncnc2)cc1 | 121 °C |
| Cc1ncn2c1CN(C)C(=O)c1ccccc1-2 | 184 to 186 °C |
| COC(=O)c1cc(-c2ccccc2)c(=O)n2c1-c1sccc1CN2C(C)=O | 132 to 134 °C |
| O=C(Nc1ccccc1)ONC1=Nc2ccc(Cl)cc2C(c2ccccc2)=NC1 | 215 to 217 °C |
| CCOC(=O)COCc1nnc(S)o1 | 101 to 103 °C |
| Nc1cc(C(=O)O)cc(OCc2ccccc2)c1-c1ccccc1 | 161 to 162 °C |
| COc1c(C(N)=O)oc2c3ccccc3n(C)c12 | 174 to 177 °C |
| COc1ccc(C2CCN(C(=O)C(=O)NO)CC2)cc1C=C1CCCCCC1 | 135 to 136 °C |
| Brc1c[nH]c2ccc(OCc3ccccc3)cc12 | 89 to 92 °C |
| CC(=O)c1ccc(-c2ccc(C(=O)Nc3ccc4cc(CN5CCCC5)cnc4c3C)cc2)s1 | 194 to 195 °C |
| Cc1nc(N2CCc3ccc(F)cc3CC2)c([N+](=O)[O-])c(=O)[nH]1 | > 200 °C |
| c1ccc(Cn2nnnc2-c2ccccc2)cc1 | 54 to 67 °C |
| O=C1CCCCC1c1ccc(F)cc1 (stereo not drawn) | 56 to 59 °C |
| CC(=NNC=O)c1ccncc1Cl | 175 °C |
| CS(=O)(=O)c1ccc(C2=C(Br)C(=O)C3(CCCCC3)O2)cc1 | 163 to 164 °C |
| Cc1cc(C#N)cc(CNc2c(NC(C)C(C)(C)C)c(=O)c2=O)c1 (stereo not drawn) | 244 to 247 °C |
| Nc1nc(Cl)cc(Oc2ccc3[nH]ccc3c2)n1 | 192 °C |
| NC(=O)Cn1c(-c2ccc(Br)cc2)nc2cccnc21 | > 250 °C |

| SMILES | melting point |
| --- | --- |
| CCCCc1nc2cc(Cl)cc(C(=O)O)c2n1Cc1ccc(-c2ccccc2-c2nnn[nH]2)cc1 | 232 to 234 °C |
| COc1cccc(Cn2cc3c(-c4cccc(C(=O)NCCO)c4)cccc3n2)c1 | 176 to 177 °C |
| O=C1COc2cc(OCCCCl)ccc2N1 | 95 °C |
| Cc1c(C)c2c(c(C)c1N)CC(C)(C)O2 | 110 °C |
| Cn1cnc(COc2nc3c(cc2-c2cccs2)nnn3-c2ccccc2F)n1 | 179 to 181 °C |
| CC(C)N(C(=O)COc1ccc(-c2ccc(C(=O)O)cc2C(F)(F)F)cc1)C(C)C | 132 to 134 °C |
| COCc1cc(Cl)ncn1 | 34 to 36 °C |
| O=C(O)CCCCNS(=O)(=O)c1ccc(N2CCCCCC2)cc1 | 135 to 140 °C |
| O=S(=O)(Nc1cccc(CCOCc2csc(-c3ccc(C(F)(F)F)cn3)n2)c1)C(F)(F)F | 116 to 117 °C |
| CC12CCC(O)CC1=CCC1C2CCC2(C)C(c3cncnc3)=CCC12 (stereo not drawn) | 231 to 233 °C |
| Cc1ncccc1O[C@@H]1COc2ccc(OCc3ccccc3)cc2[C@@H]1O (relative stereo) | 133 to 134 °C |
| O=Cc1nn(-c2ccc(Cl)cc2)nc1-c1ccccc1 | 110 to 111 °C |
| NC(=S)NN=Cc1c2ccccc2c(C=NNC(N)=S)c2ccccc12 | 275 to 277 °C |
| Cn1c(=O)c2conc2n(-c2ccccc2)c1=O | 219 to 221 °C |
| CCCCCCCCC1OC(=O)c2cc(N)ccc21 (stereo not drawn) | 124 to 125 °C |
| Cc1ccc(C(=O)c2cnn3c(-c4cccc(N(C)C(=O)C5CC5)c4)ccnc23)cc1 | 189 to 190 °C |
| COc1cc(C(C)C)nn1C | 114 to 115 °C |
| COC(=O)C1Cc2ccccc2NC1=O (stereo not drawn) | 165 to 168 °C |
| Cc1cc(SCCCSc2nnnn2C)nc(N)n1 | 119 to 120 °C |
| O=C(O)C(=O)C12CC3CC(CC(O)(C3)C1)C2 | 164 to 166 °C |
| c1ccc(-c2nc3cnccc3o2)cc1 | 118 to 121 °C |
| CN(N=C(Cl)c1c(F)cccc1F)S(=O)(=O)c1ccccc1 | 81.5 to 83 °C |
| CCOC(=O)C(C(=O)Nc1ccc(OC)cc1)(c1ccccc1)c1ccccc1 | 89 to 91 °C |
| COC(=O)C[C@@](O)(CCc1ccc(O)cc1)C(C)C | 89 to 91 °C |
| COC1=C(OC)C(=O)C2=C(CCC(CCn3ccccc3=O)CC2)C1=O | 85 to 89 °C |
| COc1cc2c(c3c1OC(C)(C)C3)C(c1ccn(CC(=O)NCC(N)=O)c(=O)c1)=NC(C)(C)C2 | 166 to 168 °C |

| SMILES | melting point |
| --- | --- |
| O=C1CCCc2cc(Sc3cccc(F)c3)cc(F)c21 | 126 to 127 °C |
| COC(=O)c1ccc(OCCN2C(=O)c3ccccc3C2=O)cc1 | 129 to 130 °C |
| C=C(CBr)S(=O)(=O)C(C)(C)C | 40.5 to 42 °C |
| CC(Oc1ccc(F)cc1)C(=O)O (stereo not drawn) | 113 to 115 °C |
| Cc1nc(=O)[nH]c2ccc(Cl)cc12 | > 270 °C |
| O=C(Nc1cccc2c3c(oc12)CCS(=O)C3)c1c(Cl)cccc1Cl (stereo not drawn) | > 250 °C |
| CC(C)(C)OC(=O)C(Nc1ccccc1)c1cccc(Br)c1 (racemic) | 90 °C |
| O=C1C=C(N2CCC3(CC2)CSC2=C(O3)c3ccccc3C(=O)C2=O)c2ccccc2C1=O | 250 to 260 °C |
| COc1ccc(Nc2ccn(-c3ccc(OCC(=O)O)cc3)n2)cc1 | 163 to 165 °C |
| Cc1ccccc1NC(=O)c1ccccc1C(c1ccc(O)cc1)c1ccc(O)cc1 | 267 to 269 °C |
| N#Cc1cc(-c2ccoc2)c2ccc(COc3cc(F)cc(-c4ccc(Cl)cc4Cl)c3)cc2n1 | 188 to 190 °C |
| Cn1nnnc1SCc1ccccn1 | 78 to 81 °C |
| Cc1ccc2c(c1)OCC(=O)N2 | 197 °C |
| CCOC(=O)CCCCOc1ccc(OCC(F)(F)F)cc1C(=O)NCC1CCCCN1 (stereo not drawn) | 100 to 102 °C |
| COC(=O)C(C(=O)OC)c1c(C(=O)OCc2ccc(OC)cc2)cc([N+](=O)[O-])c2ccccc12 | 124 to 125 °C |
| CS(=O)(=O)c1ccc(-c2nc(C(F)(F)F)[nH]c2-c2ccc3ccccc3c2)cc1 | 228 to 230 °C |
| CCc1cccc2oc(C(=O)Nc3ccc(-c4ccc(S(=O)(=O)NC(C(=O)O)C(C)C)cc4)cc3)c(C)c12 (stereo not drawn) | 239 to 241 °C |
| COC(=O)[C@H]1CN(C(=O)OC(C)(C)C)C[C@H]1c1ccc(OC)c(OC2CCCC2)c1 (relative stereo) | 85 to 87 °C |
| COc1ccc2c(c1)OC(C)(C)CC2=O | 77 to 78 °C |
| Nc1sc(-c2ccncc2)c(CN(C2CCCCC2)C2CCCCC2)c1C(=O)c1ccc(Cl)cc1 | 214 to 216 °C |
| CCNc1ccc(C)c(O)c1 | 128 to 129 °C |
| CNc1ccc(OC2CCN(c3ccncc3)CC2)cc1 | 161 to 164 °C |
| COc1ccc2oc(N(C=O)[C@@H](Cc3ccccn3)c3ncc(-c4ccc([N+](=O)[O-])cc4)n3C)cc2c1 | 210 to 211 °C |
| COc1cc(C(=O)C#CCOC(=O)c2cc(OC)c(OC)c(OC)c2)cc(OC)c1OC | 106 to 108 °C |
| Cc1nc2cccc(F)c2c(=O)n1C1CCC(=O)NC1=O (stereo not drawn) | 275 to 277 °C |
| ClCc1cc(Cl)nc(Cl)n1 | 32 to 33 °C |

| SMILES | melting point |
| --- | --- |
| C=C(c1cc(F)ccc1OCc1c(Cl)cccc1Cl)n1ccnc1 | 108 to 110 °C |
| COc1cc(C(=O)O)ccc1Cc1cn(C)c2ccc(CC3CCN(C)C3=O)cc12 (stereo not drawn) | 232 to 233 °C |
| CC(=O)Oc1cc(C(C)C)c(NC(=O)CN2CCN(CCSc3nc4ccccc4o3)CC2)c(C(C)C)c1 | 126 to 129 °C |
| Cn1c(C=NO)cnc1[N+](=O)[O-] | 203 to 205 °C |
| CC1(C)CCC(C)(C)c2cc(C(COc3ccc(C(=O)O)c(O)c3)=NO)ccc21 | 220 to 222 °C |
| O=C(O)COc1c(Cl)cc2c(-c3ccccc3F)noc2c1Cl | 160 to 170 °C |
| O=S(=O)(NCc1ccccc1)c1ccc2nc(S)sc2c1 | 214 to 215 °C |
| CCOC(=O)C1=C(C)NC(c2cnc(NC(C)=O)s2)=NC1c1ccc(F)cc1Cl (stereo not drawn) | > 250 °C |
| CN1CCCC1CCNNC(=O)N1CCC(c2[nH]nc3c2C(=O)c2c(NC(=O)NN4CCOCC4)cccc2-3)CC1 (stereo not drawn) | 91 to 93 °C |
| CC(C)CN1C(=O)[C@@H](CC(=O)O)O[C@H](c2ccccc2OCc2ccccc2)c2cc(Cl)ccc21 (relative stereo) | 194 to 197 °C |
| Cn1nc(C(F)(F)F)nc1Oc1cc(On2c(=O)cc(C(F)(F)F)n(C)c2=O)c(F)cc1Cl | 138 to 140 °C |
| CCCc1nc2c(C)cnc(C(=O)O)c2n1Cc1ccc(-c2ccccc2-c2nnn[nH]2)cc1 | 161 to 163 °C |
| Fc1ccc(-n2ccc3cc(-c4cccnc4)ccc32)cc1 | 108 to 110 °C |
| C=CCc1cc(-c2csc(-c3ccc(OCC)c(OCC)c3)n2)cc(C(=O)OC)c1O | 118 to 119 °C |
| CCN1CCN(CC/C=C/c2ccc3c(Nc4ccc(Sc5nccn5C)c(Cl)c4)c(C#N)cnc3c2)CC1 | 194 to 204 °C |
| CCCc1nc2c(N)nc3ccccc3c2n1CCCCN(O)C(C)=O | 191 to 193 °C |
| CCCOc1ccc(Nc2c([N+](=O)[O-])ccc(Cl)c2C(=O)O)cc1 | 194 to 196 °C |
| CN(C)c1ccc(C(=O)C=Cc2ccc([N+](=O)[O-])cc2)cc1 | 198 to 200 °C |
| Cc1ccccc1Nc1nc(N)nc2ccccc12 | 273 to 275 °C |
| CC(CN(C)C)CC(CNC(=O)NCCCl)(c1ccc(F)cc1)c1ccc(F)cc1 (stereo not drawn) | 105 to 107 °C |
| O=c1ccnc(NCCCN(Cc2ccccc2)c2ccccn2)[nH]1 | 162 to 163 °C |
| CC(C)C(=O)NC(c1ccc(C=NO)cc1)C(F)(F)F (stereo not drawn) | 169 to 171 °C |
| O=C(CCCCCCCCC(=O)CC(=O)c1ccccc1)CC(=O)c1ccccc1 | 108 to 111 °C |
| CC(C)(C)OC(=O)NCCc1cccc(C#N)n1 | 79.1 to 80.3 °C |
| O=c1[nH]c2ncc(-c3cn[nH]c3)nc2n1CC1CCCCC1 | 246 to 248 °C |
